Data reported in article PMC5575539 (Journal of Clinical Pharmacology, 2017).
Read-outs that look alike come from different tables or passages of the source.

How the values were obtained:
[1] = type: in vivo, human; conditions: for AUC: human, plasma, oral, 12 mg, Median AUC based on the starting dose, steady state, model‐derived
[2] = 4‐week cycles, continuous schedule; subjects with Child‐Pugh class A; cited from earlier work
[3] = type: in vivo, human; conditions: ROC curve; TEAEs during cycle 1; subjects with HCC
[4] = test system: subjects with HCC Child‐Pugh class A; conditions: 12 mg QD; independent radiologic review per modified RECIST; cited from earlier work
[5] = Population pharmacokinetic analysis of lenvatinib; type: in vivo, human; conditions: for Additional (ng/mL) (TAD ≤ 2 hours) / Proportional (%CV) (Clinical pharmacology studies) / Proportional (%CV) (Patient studies) / Proportional (%CV) (TAD ≤ 2 hours): residual error
[6] = final model, bootstrap median (2.5‐97.5 percentile)
[7] = final model, population mean (%RSE)
[8] = base model, population mean (%RSE)

## COc1cc2nccc(Oc3ccc(NC(=O)NC4CC4)c(Cl)c3)c2cc1C(N)=O [lenvatinib]
[1]; 21 of 45 subjects in the exposure–response population, 12 mg QD, HCC
  Subjects who experienced TEAEs leading to dose reduction or discontinuation during cycle 1: 46.7%
[1]; Kaplan‐Meier, tertiles of AUC based on starting dose of 12 mg, independent reviewer assessments
  Relationship between lenvatinib exposure and response (time to progression): No relationship
[1]; subjects with early dose withdrawal or reduction
  AUC: 2950 ng·h/mL
[1]; subjects without early dose modification
  AUC: 2050 ng·h/mL
[2]
  Maximum tolerated dose: 12 mg QD
[3]
  Best cutoff value of lenvatinib AUC to predict high‐risk group for early drug withdrawal or dose reduction: 2430 ng·h/mL
[4]
  Median time to progression: 7.4 months
  Objective response rate: 37%
[5]; base model, population mean (%RSE), absorption rate
  Ka: 1.02 (6.06) L/h
[5]; base model, population mean (%RSE), duration of 0‐order absorption
  D1: 1.05 (5.45) hours
[5]; base model, population mean (%RSE), relative bioavailability
  F1 (capsule vs tablet formulation): 0.832 (0.982)
[5]; covariate analysis, model including body weight and alkaline phosphatase effects
  Effect of the HCC population (HCC vs other cancer type) on CL/F: not a statistically significant effect
[5]; final PK model
  CL/F interindividual variability explained by body weight: 10.5%
  CL/F interindividual variability explained by other covariates: 14.3%
  Decrease of CL/F with CYP3A4 inhibitors: 7.8%
  Decrease of CL/F with alkaline phosphatase above the upper limit of normal: 14.8%
  Higher CL/F in healthy subjects than in patients with cancer: 19%
  Increase of CL/F with concomitant administration of CYP3A4 inducers: 30%
[5]; final PK model, listed as Lenvatinib
  Decrease of CL/F with alkaline phosphatase above the upper limit of normal: 15%
[5]; [6]
  ALP (> ULN vs ≤ ULN) on CL/F [ΘALP]: 0.855 (0.807‐0.910)
  Body weight on V1/F, V2/F, and V3/F [ΘWGT2]: 1.08 (0.876‐1.28)
  D1: 1.06 (0.987‐1.14) hours
  F1 (capsule vs tablet formulation): 0.867 (0.815‐0.908)
  Ka: 1.04 (0.933‐1.13) L/h
  Population (healthy vs subjects) on CL/F [ΘTM]: 1.19 (1.11‐1.27)
  Additional (ng/mL) (TAD ≤ 2 hours): 7.50 (4.62‐9.85) ng/mL
  Proportional (%CV) (Clinical pharmacology studies): 17.1 (15.5‐18.8) %CV
  Proportional (%CV) (Patient studies): 30.1 (27.7‐32.2) %CV
  Proportional (%CV) (TAD ≤ 2 hours): 44.8 (40.7‐48.8) %CV
[5]; [7]
  ALP (> ULN vs ≤ ULN) on CL/F [ΘALP]: 0.852 (1.24)
  Population (healthy vs subjects) on CL/F [ΘTM]: 1.19 (3.26)
  Additional (ng/mL) (TAD ≤ 2 hours): 7.35 (16.3) ng/mL
  Proportional (%CV) (Clinical pharmacology studies): 17.3 (0.883) %CV
  Proportional (%CV) (Patient studies): 30.2 (2.00) %CV
  Proportional (%CV) (TAD ≤ 2 hours): 44.8 (3.87) %CV
[5]; final model, population mean (%RSE), absorption rate
  Ka: 1.04 (6.80) L/h
[5]; final model, population mean (%RSE), duration of 0‐order absorption
  D1: 1.06 (5.77) hours
[5]; final model, population mean (%RSE), power exponent on WGT/75
  Body weight on V1/F, V2/F, and V3/F [ΘWGT2]: 1.08 (5.42)
[5]; final model, population mean (%RSE), relative bioavailability
  F1 (capsule vs tablet formulation): 0.867 (1.00)
[5]; population PK analysis
  Differences in CL/F between HCC Child‐Pugh class A and B groups: No differences in CL/F
[5]; [8]
  Additional (ng/mL) (TAD ≤ 2 hours): 7.29 (16.2) ng/mL
  Proportional (%CV) (Clinical pharmacology studies): 18.4 (0.888) %CV
  Proportional (%CV) (Patient studies): 30.7 (2.03) %CV
  Proportional (%CV) (TAD ≤ 2 hours): 44.9 (3.75) %CV
